Results taken from DBAASP.
In brackets after ≈: the same amount, converted by molar mass.

Experiments:
Assay in all cases: ≥ marks a high value that may be exact or a test limit, other limits are often not marked, values filed in µg/mL are converted to µM
Bacillus subtilis 168 = test system: Bacillus subtilis 168
[1] = test system: Candida albicans F7-39/IDE99
Escherichia coli B = test system: Escherichia coli B
[2] = test system: Micrococcus luteus CCM 144
[3] = test system: Pseudomonas aeruginosa ATCC 27853
Pseudomonas aeruginosa = test system: Pseudomonas aeruginosa
Staphylococcus aureus 1 = test system: Staphylococcus aureus 1
[4] = test system: Staphylococcus aureus ATCC 43300
Staphylococcus aureus = test system: Staphylococcus aureus
[5] = test system: Staphylococcus epidermidis
[6] = test system: Pseudomonas aeruginosa 0108
[7] = test system: Pseudomonas aeruginosa CGMCC 1.860
[8] = test system: Candida albicans ATCC 10231
[9] = test system: Candida albicans ATCC 90028
[10] = test system: Escherichia coli ATCC 25922
[11] = test system: Staphylococcus aureus ATCC 29737
[12] = test system: Staphylococcus aureus USA 100
[13] = test system: Staphylococcus aureus USA 300
[14] = test system: Staphylococcus epidermidis ATCC 12228
Escherichia coli AB94012 = test system: Escherichia coli AB94012
[15] = test system: Pseudomonas aeruginosa AB93066
[16] = test system: Pseudomonas aeruginosa ATCC 9027
[17] = test system: Staphylococcus aureus AB94004
[18] = test system: Staphylococcus aureus ATCC 25923
[19] = test system: Staphylococcus aureus ATCC 6538
[20] = test system: Staphylococcus aureus P1374
[21] = test system: Staphylococcus aureus P1381
[22] = test system: Klebsiella pneumoniae DM4299
[23] = test system: Pseudomonas aeruginosa DM23155
[24] = test system: Acinetobacter johnsonii NCDC 0072
[25] = test system: Bacillus cereus NCDC 0240
[26] = test system: Escherichia coli MTCC 0723
[27] = test system: Listeria monocytogenes ATCC 19111
[28] = test system: Pseudomonas aeruginosa NCDC 0105
[29] = test system: Salmonella enterica subsp. enterica serovar Typhimurium ATCC 14028
[30] = test system: Staphylococcus aureus ATCC 29213
[31] = test system: Staphylococcus aureus NCDC 0111
[32] = test system: Candida albicans ATCC 2002
[33] = test system: Candida parapsilosis ATCC 22019
[34] = test system: Enterobacter cloacae ATCC 13047
[35] = test system: Enterococcus faecalis ATCC 29212
Escherichia coli IS117# = test system: Escherichia coli IS117#
Escherichia coli IS218# = test system: Escherichia coli IS218#
Escherichia coli IS37# = test system: Escherichia coli IS37#
[36] = test system: Klebsiella pneumoniae ATCC 700603
[37] = test system: Pseudomonas aeruginosa CMCCB 1010
[38] = test system: Pseudomonas aeruginosa IS350#
Shigella dysenteriae = test system: Shigella dysenteriae
[39] = test system: Staphylococcus aureus IS10#

Structure (SMILES): CC[C@H](C)[C@H](NC(=O)CN)C(=O)N[C@@H](CC(C)C)C(=O)N[C@@H](CO)C(=O)N[C@@H](CO)C(=O)N[C@@H](CC(C)C)C(=O)N[C@@H](CC(C)C)C(=O)N[C@@H](CCCCN)C(=O)N[C@@H](CCCCN)C(=O)N[C@@H](CC(C)C)C(=O)N[C@@H](CCCCN)C(=O)N[C@@H](CCCCN)C(=O)N[C@H](C(=O)N[C@H](C(=O)N[C@@H](C)C(=O)N[C@@H](CCCCN)C(N)=O)[C@@H](C)CC)[C@@H](C)CC [GILSSLLKKLKKIIAK]
- MIC (Bacillus subtilis 168): 7 µM (≈ 12.3 µg/mL)
- MIC [1]: 10 µM (≈ 17.5 µg/mL)
- MIC (Escherichia coli B): 8 µM (≈ 14 µg/mL)
- MIC [2]: 3 µM (≈ 5.26 µg/mL)
- MIC [3]: 5 µM (≈ 8.76 µg/mL)
- MIC (Pseudomonas aeruginosa): 7.5 µM (≈ 13.1 µg/mL)
- MIC (Staphylococcus aureus 1): 3.8 µM (≈ 6.66 µg/mL)
- MIC [4]: 16 µM (≈ 28 µg/mL)
- MIC (Staphylococcus aureus): 5 µM (≈ 8.76 µg/mL)
- MIC [5]: 1.8 µM (≈ 3.15 µg/mL)

Structure (SMILES): CC[C@H](C)[C@H](N)C(=O)N[C@@H](CCCCN)C(=O)N[C@@H](CCCCN)C(=O)N[C@@H](Cc1c[nH]c2ccccc12)C(=O)N[C@@H](CC(C)C)C(=O)N[C@@H](CO)C(=O)N[C@@H](CCCCN)C(=O)N[C@H](C(=O)N[C@@H](CCCCN)C(=O)N[C@@H](CCCCN)C(=O)N[C@@H](CC(C)C)C(=O)N[C@@H](CC(C)C)C(=O)N[C@@H](CCCCN)C(N)=O)[C@@H](C)CC [IKKWLSKIKKLLK]
- MIC [6]: 6.25 µM (≈ 10.2 µg/mL)
- MIC [7]: 3.13 µM (≈ 5.09 µg/mL)

Structure (SMILES): CC[C@H](C)[C@H](N)C(=O)N[C@@H](CCCN=C(N)N)C(=O)N[C@H](C(=O)N[C@@H](CCCCN)C(=O)N[C@H](C(=O)N[C@@H](CCCN=C(N)N)C(=O)N[C@H](C(=O)N[C@@H](CCCCN)C(N)=O)[C@@H](C)CC)[C@@H](C)CC)[C@@H](C)CC [IRIKIRIK]
- MIC [8]: 3.75 µM (≈ 3.9 µg/mL)
- MIC [9]: 1.56 µM (≈ 1.62 µg/mL)
- MIC [10]: 15 µM (≈ 15.6 µg/mL)
- MIC [11]: ≥ 60.1 µM
- MIC [12]: 12.5 µM (≈ 13 µg/mL)
- MIC [13]: 12.5 µM (≈ 13 µg/mL)
- MIC [14]: 3.75 µM (≈ 3.9 µg/mL)

Structure (SMILES): CC[C@H](C)[C@H](NC(=O)[C@H](CO)NC(=O)[C@H](CCCCN)NC(=O)[C@@H](NC(=O)CNC(=O)[C@H](CCCCN)NC(=O)[C@H](Cc1c[nH]c2ccccc12)NC(=O)[C@H](CC(C)C)NC(=O)[C@H](CCCCN)NC(=O)CNC(=O)[C@H](CC(C)C)NC(=O)[C@@H](NC(=O)[C@@H](N)CC(C)C)[C@@H](C)CC)C(C)C)C(=O)N[C@@H](Cc1ccccc1)C(N)=O [LILGKLWKGVKSIF]
- MIC (Escherichia coli AB94012): 31.2 µM (≈ 50 µg/mL)
- MIC [10]: 62.4 µM (≈ 99.9 µg/mL)
- MIC [15]: ≥ 62.4 µM
- MIC [16]: 15.6 µM (≈ 25 µg/mL)
- MIC [17]: 7.8 µM (≈ 12.5 µg/mL)
- MIC [18]: 7.8 µM (≈ 12.5 µg/mL)
- MIC [19]: 7.8 µM (≈ 12.5 µg/mL)
- MIC [20]: 3.9 µM (≈ 6.25 µg/mL)
- MIC [21]: 15.6 µM (≈ 25 µg/mL)

Structure (SMILES): CC(=O)N[C@@H](CCCN=C(N)N)C(=O)NCC(=O)N[C@@H](CCCN=C(N)N)C(=O)N[C@@H](CCCCN)C(=O)N[C@H](C(=O)N[C@H](C(=O)N[C@@H](CCCN=C(N)N)C(=O)N[C@@H](CCCN=C(N)N)C(=O)N[C@@H](CCCCN)C(=O)N[C@@H](CCCCN)C(=O)O)C(C)C)C(C)C [RGRKVVRRKK]
- MIC [10]: 6 µM (≈ 7.95 µg/mL)
- MIC [22]: 6 µM (≈ 7.95 µg/mL)
- MIC [23]: 6 µM (≈ 7.95 µg/mL)

Structure (SMILES): CC[C@H](C)[C@H](NC(=O)[C@@H](N)CCCN=C(N)N)C(=O)N[C@@H](CCCN=C(N)N)C(=O)N[C@@H](Cc1ccccc1)C(=O)N1CCC[C@H]1C(=O)N[C@@H](Cc1c[nH]c2ccccc12)C(=O)N1CCC[C@H]1C(=O)N[C@@H](Cc1c[nH]c2ccccc12)C(=O)N[C@@H](CCCN=C(N)N)C(=O)N[C@@H](Cc1c[nH]c2ccccc12)C(=O)N1CCC[C@H]1C(=O)N[C@@H](Cc1c[nH]c2ccccc12)C(=O)N[C@@H](Cc1c[nH]c2ccccc12)C(=O)N1CCC[C@H]1C(=O)N[C@@H](CCCN=C(N)N)C(=O)N[C@@H](Cc1ccccc1)C(=O)N[C@@H](CCCN=C(N)N)C(=O)NCC(=O)O [RIRFPWPWRWPWWPRFRG]
- MIC [24]: ≥ 50 µM
- MIC [25]: 1.5 µM (≈ 3.87 µg/mL)
- MIC [26]: 6 µM (≈ 15.5 µg/mL)
- MIC [27]: 6 µM (≈ 15.5 µg/mL)
- MIC [3]: 25 µM (≈ 64.6 µg/mL)
- MIC [28]: ≥ 50 µM
- MIC [29]: 50 µM (≈ 129 µg/mL)
- MIC [30]: 6 µM (≈ 15.5 µg/mL)
- MIC [31]: 12.5 µM (≈ 32.3 µg/mL)

Structure (SMILES): CC[C@H](C)[C@H](NC(=O)[C@@H](N)C(C)C)C(=O)N1CCC[C@H]1C(=O)N[C@@H](Cc1ccccc1)C(=O)N[C@H](C(=O)N[C@@H](C)C(=O)N[C@@H](CO)C(=O)N[C@H](C(=O)N[C@@H](C)C(=O)N[C@@H](C)C(=O)N[C@@H](CCC(=O)O)C(=O)N[C@@H](CCSC)C(=O)N[C@@H](CCSC)C(=O)N[C@@H](CCC(N)=O)C(=O)N[C@@H](Cc1cnc[nH]1)C(=O)N[C@H](C(=O)N[C@@H](Cc1ccc(O)cc1)C(=O)N[C@H]1CSSC[C@@H](C(=O)O)NC(=O)[C@H](CCCN=C(N)N)NC(=O)[C@H](CCCCN)NC(=O)[C@H](CO)NC(=O)[C@H](C)NC(=O)[C@H](C)NC1=O)C(C)C)C(C)C)C(C)C [VIPFVASVAAEMMQHVYCAASKRC]
- MIC [32]: 1.91 µM (≈ 5 µg/mL)
- MIC [9]: 3.83 µM (≈ 9.99 µg/mL)
- MIC [33]: 7.66 µM (≈ 20 µg/mL)
- MIC [34]: 3.83 µM (≈ 9.99 µg/mL)
- MIC [35]: 1.91 µM (≈ 5 µg/mL)
- MIC [10]: 1.91 µM (≈ 5 µg/mL)
- MIC (Escherichia coli IS117#): 7.66 µM (≈ 20 µg/mL)
- MIC (Escherichia coli IS218#): 19.1 µM (≈ 50 µg/mL)
- MIC (Escherichia coli IS37#): 19.1 µM (≈ 50 µg/mL)
- MIC [36]: 3.83 µM (≈ 9.99 µg/mL)
- MIC [3]: 7.66 µM (≈ 20 µg/mL)
- MIC [37]: 3.83 µM (≈ 9.99 µg/mL)
- MIC [38]: 19.1 µM (≈ 50 µg/mL)
- MIC (Shigella dysenteriae): 3.83 µM (≈ 9.99 µg/mL)
- MIC [18]: 3.83 µM (≈ 9.99 µg/mL)
- MIC [39]: 19.1 µM (≈ 50 µg/mL)
